Measured values from patent publication US20230127047A1, “SELECTIVE GIP RECEPTOR AGONISTS COMPRISING A CHELATING MOIETY FOR IMAGING AND THERAPY PURPOSES” (ANTAROS MEDICAL AB, priority 2020, published 2023).
Where a SMILES comes first, the peptide text is derived from it. [ ]: non-standard residue; d: D form. The star is where a group is joined. DOTA = O=C(O)CN1CCN(CC(=O)O)CCN(CC(=O)*)CCN(CC(=O)O)CC1; Aib = CC(C)(N)C(=O)O

Experiments:
[1] = target: human GLP-1 receptor (hGLP-1R) (Homo sapiens, UniProt P43220); assay: cAMP response (HTRF) in PSC-HEK-293 cells expressing human GLP-1 receptor; type: cell-based
human GLP-1 receptor (hGLP-1R), sequence (P43220 24-463): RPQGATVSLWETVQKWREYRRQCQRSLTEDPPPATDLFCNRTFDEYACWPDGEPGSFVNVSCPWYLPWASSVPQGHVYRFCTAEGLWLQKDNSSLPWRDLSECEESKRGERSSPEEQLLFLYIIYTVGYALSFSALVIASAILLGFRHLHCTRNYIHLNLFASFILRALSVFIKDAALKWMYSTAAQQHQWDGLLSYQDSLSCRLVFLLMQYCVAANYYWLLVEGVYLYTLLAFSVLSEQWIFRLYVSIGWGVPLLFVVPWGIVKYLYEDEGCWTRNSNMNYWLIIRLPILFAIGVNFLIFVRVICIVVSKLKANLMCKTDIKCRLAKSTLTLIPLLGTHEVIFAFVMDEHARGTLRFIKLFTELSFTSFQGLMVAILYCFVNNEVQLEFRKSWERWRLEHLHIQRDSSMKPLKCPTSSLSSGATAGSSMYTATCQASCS
Protocol: (§1) Each vial contained 1.8 ml cells. The vials were slowly frozen to −80° C. in isopropanol, and then transferred in liquid nitrogen for storage.
(§2) Prior to their use, frozen cells were thawed quickly at 37° C. and washed (5 min at 900 rpm) with 20 ml cell buffer (lx HBSS; 20 mM HEPES, with 0.1% BSA).
(§3) For measurement of cAMP generation, 5 μl cells (final 5000 cells/well) and 5 μl of test compound were added to a 384-well plate, followed by incubation for 30 min at room temperature.
(§4) The cAMP generated was determined using a kit from Cisbio Corp. based on HTRF (Homogenous Time Resolved Fluorescence). The cAMP assay was performed according to manufacturer's instructions (Cisbio).
(§5) cAMP content of cells was determined using a kit from Cisbio Corp. (cat. no. 62AM4PEC) based on HTRF (Homogenous Time Resolved Fluorescence). […] Medium was then removed and cells washed with PBS lacking calcium and magnesium, followed by proteinase treatment with accutase (Sigma-Aldrich cat. no. A6964). Detached cells were washed and resuspended in assay buffer (1×HBSS; 20 mM HEPES, 0.1% BSA, 2 mM IBMX) and cellular density determined. They were then diluted to 400000 cells/ml and 25 μl-aliquots dispensed into the wells of 96-well plates. For measurement, 25 μl of test compound in assay buffer was added to the wells, followed by incubation for 30 minutes at room temperature.

[2] = Chemical stability testing of peptides in solution (UHPLC); type: physicochemical; details: 0.5 mg/mL, pH 7.3 TRIS buffer
Protocol: For chemical stability testing, the target concentration was 0.5 mg/mL pure compound in a pH 7.3 TRIS buffer (50 mM) containing m-cresol (30 mM), sodium chloride (85 mM) and polysorbate 20 (8 μM). The solution was stored for 7 days at 4° C., or 40° C. After that time, the solution was analysed by UHPLC (Analytical UHPLC Method D).
The “% Purity” after 7 days is defined by the % Relative purity at day 7 in relation to the % Relative purity at t0 following the equation
% Purity=[(% Relative purity t7)×100)]/% Relative purity t0
The % Relative purity at t0 was calculated by dividing the peak area of the peptide at t0 by the sum of all peak areas at t0 following the equation
% Relative purity t0=[(peak area t0)×100]/sum of all peak areas t0
Likewise, the % relative purity t7 was calculated by dividing the peak are of the peptide at t7 by the sum of all peak areas at t7 following the equation
% Relative purity t7=[(peak area t7)×100]/sum of all peak areas t7
Chemical stability of peptidic compounds was assessed as described in Methods.

[3] = target: T1, glucagon receptor (hGCGR) (Homo sapiens, UniProt P47871); assay: cAMP response (HTRF) in PSC-HEK-293 cells expressing human glucagon receptor; type: cell-based
T1 construct: expressed in transfected cells
T1 sequence (P47871 26-477): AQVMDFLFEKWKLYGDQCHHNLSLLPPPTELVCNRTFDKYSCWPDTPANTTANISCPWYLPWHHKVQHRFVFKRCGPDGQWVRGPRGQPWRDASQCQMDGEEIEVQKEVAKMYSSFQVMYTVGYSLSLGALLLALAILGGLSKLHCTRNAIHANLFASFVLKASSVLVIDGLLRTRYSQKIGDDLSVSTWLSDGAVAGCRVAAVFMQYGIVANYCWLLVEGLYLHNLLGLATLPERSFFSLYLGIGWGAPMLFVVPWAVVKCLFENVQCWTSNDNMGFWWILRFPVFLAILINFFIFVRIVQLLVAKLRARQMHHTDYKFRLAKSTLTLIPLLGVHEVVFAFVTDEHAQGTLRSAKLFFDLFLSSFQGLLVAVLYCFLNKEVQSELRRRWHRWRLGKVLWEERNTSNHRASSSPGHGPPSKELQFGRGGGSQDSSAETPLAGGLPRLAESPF
Protocol: as §1, §2, §3, §4, §5

Protocol for physchem: Depending on the presence of remaining material as judged by visual inspection the compounds were determined to be soluble at the target concentration in the respective buffer system.
Solubility buffer system A) 100 mM Phosphate buffer pH 7.4
Solubility buffer system B) Acetate buffer pH 4.5
Solubility buffer system C) 100 mM Histidine buffer pH 5.5
Solubility buffer system D) 10 mM Glycine pH 2.5
Solubility buffer system E) 10 mM Glycine pH 2.0
Solubility buffer system F) 50 mM TRIS buffer, 30 mM m-cresol, 85 mM sodium chloride, 8 μM polysorbate 20 pH 7.3
Peptide samples were prepared in the respective solubility buffer system and solubility was assessed as described in Methods.

SMILES: CC[C@H](C)[C@H](NC(=O)[C@H](CO)NC(=O)[C@H](CC(C)C)NC(=O)[C@H](CC(=O)O)NC(=O)[C@H](CO)NC(=O)[C@@H](NC(=O)[C@H](Cc1ccccc1)NC(=O)[C@@H](NC(=O)CNC(=O)[C@H](CCC(=O)O)NC(=O)C(C)(C)NC(=O)[C@@H](N)Cc1ccc(O)cc1)[C@@H](C)O)[C@@H](C)CC)C(=O)N[C@@H](C)C(=O)N[C@@H](CC(C)C)C(=O)N[C@@H](CC(=O)O)C(=O)N[C@@H](CCCNC(=N)N)C(=O)N[C@H](C(=O)N[C@@H](Cc1c[nH]cn1)C(=O)N[C@@H](CCC(N)=O)C(=O)N[C@@H](CCC(=O)O)C(=O)N[C@@H](CCC(=O)O)C(=O)N[C@@H](Cc1ccccc1)C(=O)N[C@H](C(=O)N[C@@H](CCC(=O)O)C(=O)N[C@@H](Cc1c[nH]c2ccccc12)C(=O)N[C@@H](CC(C)C)C(=O)N[C@@H](CC(C)C)C(=O)N[C@@H](C)C(=O)NCC(=O)NCC(=O)N[C@@H](CCCCNC(=O)CN1CCN(CC(=O)O)CCN(CC(=O)O)CCN(CC(=O)O)CC1)C(N)=O)[C@@H](C)CC)[C@@H](C)CC [SEQ ID NO: 3, Y-Aib-EGTFISDLSIALDRIHQEEFIEWLLAGGK(DOTA)-NH2] (H-Y[Aib]EGTFISDLSIALDRIHQEEFIEWLLAGGK(DOTA)-NH2; N-terminus assumed)
- EC50 [1]: > 10 nM
- solubility (physchem; 10 mM glycine buffer, pH 2): ≥ 500 µg/mL
- solubility (physchem; 10 mM glycine buffer, pH 2.5): ≥ 500 µg/mL
- solubility (physchem; 100 mM histidine buffer, pH 5.5): ≥ 500 µg/mL
- solubility (physchem; 100 mM phosphate buffer, pH 7.4): ≥ 500 µg/mL
- solubility (physchem; acetate buffer, pH 4.5): < 500 µg/mL
- solubility (physchem; pH 7.3): ≥ 500 µg/mL
- % Purity after 7 days ([2]; 4° C.): >97%
- % Purity after 7 days ([2]; 40° C.): >97%
- EC50 [3]: > 10 nM
